Experimental data from ChEMBL document CHEMBL3046969, “Synthesis, structure, and biological assay of cinnamic amides as potential EGFR kinase inhibitors” (Med Chem Res, 2013).

Key:
MCF7 = experiment: cells; format: functional, cell-based; details: Homo sapiens, MCF7, 48 h
Description: Antiproliferative activity against Homo sapiens (human) MCF-7 cells overexpressing EGFR assessed as inhibition of cell survival after 48 hr by MTT assay

[1] = molecular target: Epidermal growth factor receptor (Homo sapiens, UniProt P00533); experiment: Inhibition of autophosphorylation of His6-tagged EGFR cytoplasmic domain (unknown origin) expressed in Sf9 cells by DELFIA time resolved fluorometry; format: cell-based
Chain of Epidermal growth factor receptor (P00533 whole entry, the tested form may be a part): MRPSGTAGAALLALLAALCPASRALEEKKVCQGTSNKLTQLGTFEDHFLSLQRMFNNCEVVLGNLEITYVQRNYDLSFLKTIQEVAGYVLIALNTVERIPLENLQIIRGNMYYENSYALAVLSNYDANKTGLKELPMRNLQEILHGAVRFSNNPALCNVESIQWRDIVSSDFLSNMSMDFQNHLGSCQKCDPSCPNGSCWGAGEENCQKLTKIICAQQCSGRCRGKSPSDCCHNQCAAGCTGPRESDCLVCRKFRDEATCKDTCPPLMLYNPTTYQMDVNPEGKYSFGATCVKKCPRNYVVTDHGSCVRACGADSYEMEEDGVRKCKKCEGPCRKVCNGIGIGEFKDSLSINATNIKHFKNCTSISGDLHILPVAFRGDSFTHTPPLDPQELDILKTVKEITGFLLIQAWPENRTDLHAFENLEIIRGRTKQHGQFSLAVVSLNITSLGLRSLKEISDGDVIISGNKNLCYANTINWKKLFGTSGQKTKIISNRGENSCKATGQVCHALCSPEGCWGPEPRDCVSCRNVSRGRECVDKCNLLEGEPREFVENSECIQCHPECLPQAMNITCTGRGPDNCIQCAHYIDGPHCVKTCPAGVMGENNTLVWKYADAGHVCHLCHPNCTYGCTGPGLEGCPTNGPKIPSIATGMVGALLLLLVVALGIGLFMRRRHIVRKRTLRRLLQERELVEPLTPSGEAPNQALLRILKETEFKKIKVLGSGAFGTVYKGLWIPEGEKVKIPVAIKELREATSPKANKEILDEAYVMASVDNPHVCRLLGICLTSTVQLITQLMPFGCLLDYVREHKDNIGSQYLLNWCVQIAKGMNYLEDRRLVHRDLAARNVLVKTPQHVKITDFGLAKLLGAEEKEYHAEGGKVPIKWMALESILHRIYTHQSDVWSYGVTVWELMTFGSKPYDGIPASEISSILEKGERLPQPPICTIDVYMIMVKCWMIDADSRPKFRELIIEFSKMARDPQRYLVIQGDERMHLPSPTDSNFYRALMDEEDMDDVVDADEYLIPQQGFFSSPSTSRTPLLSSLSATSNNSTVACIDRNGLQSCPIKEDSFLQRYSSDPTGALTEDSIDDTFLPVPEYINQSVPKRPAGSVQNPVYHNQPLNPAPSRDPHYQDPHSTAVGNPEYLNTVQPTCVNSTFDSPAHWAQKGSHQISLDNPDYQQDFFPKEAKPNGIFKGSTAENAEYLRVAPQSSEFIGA

An IC50 (MCF7) of 3.26 µM and an IC50 [1] of 12.7 µM were found for `Cc1ccc(NC(=O)/C=C/c2ccccc2)cc1` [N-P-TOLYLCINNAMAMIDE] in this work.

An IC50 (MCF7) of 5.39 µM and an IC50 [1] of 14.6 µM were found for `CC(C)c1ccc(NC(=O)/C=C/c2ccccc2)cc1` in this work.

An IC50 (MCF7) of 2.89 µM and an IC50 [1] of 12.9 µM were found for `O=C(/C=C/c1ccccc1)Nc1cc(F)c(F)c(F)c1` in this work.

An IC50 (MCF7) of 5.83 µM and an IC50 [1] of 19.7 µM were found for `Cc1cccc(NC(=O)/C=C/c2ccccc2)c1` [N-M-TOLYLCINNAMAMIDE] in this work.

An IC50 (MCF7) of 13.4 µM and an IC50 [1] of 38.5 µM were found for `CCCCCCCCCCCCNC(=O)/C=C/c1ccccc1` [N-DODECYLCINNAMAMIDE] in this work.

An IC50 (MCF7) of 4 µM and an IC50 [1] of 16.2 µM were found for `O=C(/C=C/c1ccccc1)Nc1ccc(Cl)cc1Cl` in this work.

An IC50 (MCF7) of 3.3 µM and an IC50 [1] of 10.2 µM were found for `CCOc1ccc(NC(=O)/C=C/c2ccccc2)cc1` in this work.

An IC50 (MCF7) of 3.17 µM and an IC50 [1] of 12.3 µM were found for `Cc1ccccc1NC(=O)/C=C/c1ccccc1` [N-O-TOLYLCINNAMAMIDE] in this work.

An IC50 (MCF7) of 4.05 µM and an IC50 [1] of 15.7 µM were found for `O=C(/C=C/c1ccccc1)Nc1ccccc1Br` in this work.

An IC50 (MCF7) of 2.43 µM and an IC50 [1] of 9.35 µM were found for `CCOc1ccccc1NC(=O)/C=C/c1ccccc1` in this work.

An IC50 (MCF7) of 11.1 µM and an IC50 [1] of 29.8 µM were found for `CC(C)(C)NC(=O)/C=C/c1ccccc1` [N-TERT-BUTYLCINNAMAMIDE] in this work.

An IC50 (MCF7) of 4.65 µM and an IC50 [1] of 13.2 µM were found for `O=C(/C=C/c1ccccc1)Nc1cc(F)cc(F)c1` in this work.

An IC50 (MCF7) of 4.14 µM and an IC50 [1] of 11.7 µM were found for `O=C(/C=C/c1ccccc1)Nc1ccc(F)cc1F` in this work.

An IC50 (MCF7) of 4.47 µM and an IC50 [1] of 13.9 µM were found for `O=C(/C=C/c1ccccc1)Nc1cc(Cl)cc(Cl)c1` in this work.

An IC50 (MCF7) of 0.22 µM was found for `C#Cc1cccc(Nc2ncnc3cc(OCCOC)c(OCCOC)cc23)c1` [ERLOTINIB] in this work.
